Literature values, collected in patent US20030060503A1, “Nutritional supplements for mature pets” (Juvenon, Inc., priority 2000, published 2003).
Read-outs that look alike come from different tables or passages of the source.

Tests used:
[1] = test system: carnitine-acetyl-carnitine exchange across the inner mitochondrial membrane
[2] = daily supplements of up to 200 mg for 6-12 months and 100 mg daily for up to 6 y
[3] = test system: programmed cell death, or apoptosis; details: through its action in the mitochondria
aged rats = details: supplementation
oxidant production = details: carnitine supplementation
skeletal muscle = details: older individuals (40-73), 20 g/day, one week

Molecule: C[N+](C)(C)C[C@H](O)CC(=O)[O-] [L-carnitine]
- age-related decrease of carnitine-acetyl-carnitine exchange activity [1]: slow or reverse this age-related dysfunction

Molecule: COC1=C(OC)C(=O)C(C/C=C(\C)CC/C=C(\C)CC/C=C(\C)CC/C=C(\C)CC/C=C(\C)CC/C=C(\C)CC/C=C(\C)CC/C=C(\C)CC/C=C(\C)CCC=C(C)C)=C(C)C1=O [Q10, coenzyme Q10]
- adverse effects [2]: No important adverse effects
- recovery of function in older hearts (senescent myocardium): corrected the age-specific diminished recovery of function in older hearts
- tolerance of senescent myocardium to aerobic and ischemic stress (senescent myocardium; human atrial tissue and rats): improves the tolerance of the senescent myocardium to aerobic and ischemic stress
- programmed cell death (apoptosis) [3]: appears to block programmed cell death

Molecule: O=C(O)CCCC[C@@H]1CCSS1 [R-α-lipoic acid]
- ambulatory activity (aged rats; aged rats): triple the ambulatory activity of aged rats
- age-related increase in oxidants (aged rats): significantly lower the age-related increase in oxidants
- glutathione and ascorbic acid levels (aged rats): restore glutathione and ascorbic acid levels to youthful levels
- mitochondrial membrane potential (aged rats): restore the age-related decline in mitochondrial membrane potential
- oxygen consumption (aged rats): reverse the age-related decrease in oxygen consumption

Molecule: C[N+](C)(C)CC(O)CC(=O)[O-] (centres unmarked) [carnitine]
- cell antioxidants (oxidant production): decreased cell antioxidants markedly
- increase in oxidant production (oxidant production): 30%

Molecule: CN(CC(=O)O)C(=N)N [creatine]
- skeletal muscle strength and endurance (skeletal muscle): increased skeletal muscle strength and endurance
- safety (1.5 g-25 g/day for at least a year): safe
- adverse effects (athletes, doses up to 75 grams a day for years): without known adverse effects, aside from weight gain

Molecule: COc1c(O)c(C)c(C/C=C(\C)CC/C=C(\C)CC/C=C(\C)CC/C=C(\C)CC/C=C(\C)CC/C=C(\C)CC/C=C(\C)CC/C=C(\C)CC/C=C(\C)CCC=C(C)C)c(O)c1OC [ubiquinol-10]
- oxidative damage to DNA (human lymphocytes): appears to protect human lymphocytes from oxidative damage to DNA

Molecule: acyl-L-carnitine
- age-related decrease of carnitine-acetyl-carnitine exchange activity [1]: slow or reverse this age-related dysfunction
